# Assay results taken from the supplement of paper PMC10307832.
# Tests used:
# Assay in all cases: relative viability (nuclei count vs DMSO), 5 days (fraction); higher = more cells survive
# [1] = test system: A-427
# Outline: (§1)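 A single step with final 0.05% Triton X-100, 1% formaldehyde and 1 ug/ml Hoechst fixed the cells and stained nuclei 5 days after treatment. Lung cancer cell lines in 1536-well plates had been treated by pin tool the day after seeding with one drug alone or a fixed anchor-drug dose plus five library-drug doses (not always all listed) in √10 steps, and nuclei were counted on 4× images. Relative viability is the ratio of nuclei in treated wells to nuclei in vehicle wells, taken as the median of duplicate plates.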
# [2] = test system: CAL-12T
# Outline: as §1
# [3] = test system: COR-L 105
# Outline: as §1
# [4] = test system: EPLC-272H
# Outline: as §1
# [5] = test system: HCC-15
# Outline: as §1
# [6] = test system: LC-2-ad
# Outline: as §1
# [7] = test system: LCLC-97TM1
# Outline: as §1
# [8] = test system: NCI-H1395
# Outline: as §1
# [9] = test system: NCI-H1563
# Outline: as §1
# [10] = test system: NCI-H1734
# Outline: as §1
# [11] = test system: NCI-H1915
# Outline: as §1
# [12] = test system: NCI-H1975
# Outline: as §1
# [13] = test system: NCI-H2023
# Outline: as §1
# [14] = test system: NCI-H2342
# Outline: as §1
# [15] = test system: NCI-H2347
# Outline: as §1
# [16] = test system: NCI-H2405
# Outline: as §1
# [17] = test system: NCI-H520
# Outline: as §1
# [18] = test system: NCI-H838
# Outline: as §1
# [19] = test system: SW 1573
# Outline: as §1
# [20] = test system: SW 900
# Outline: as §1
# [21] = test system: UMC-11
# Outline: as §1
compound,measurement,setting,value
CN1CCN(CCOc2cc(OC3CCOCC3)c3c(Nc4c(Cl)ccc5c4OCO5)ncnc3c2)CC1 [Saracatinib] + COc1cc2c(Oc3ccc(NC(=O)C4(C(=O)Nc5ccc(F)cc5)CC4)cc3F)ccnc2cc1OCCCN1CCOCC1 [Foretinib] (partner 0.25 µM),relative viability,[1]; first compound 0.02 µM,1.09
same,relative viability,[1]; first compound 0.2 µM,1.09
same,relative viability,[1]; first compound 0.6325 µM,1.07
same,relative viability,[1]; first compound 2 µM,0.99
same,relative viability,[2]; first compound 0.02 µM,1.12
same,relative viability,[2]; first compound 0.2 µM,1.02
same,relative viability,[2]; first compound 0.6325 µM,1.33
same,relative viability,[2]; first compound 2 µM,1.18
same,relative viability,[3]; first compound 0.02 µM,0.973
same,relative viability,[3]; first compound 0.2 µM,1.04
same,relative viability,[3]; first compound 0.6325 µM,1.09
same,relative viability,[3]; first compound 2 µM,0.816
same,relative viability,[4]; first compound 0.02 µM,0.403
same,relative viability,[4]; first compound 0.2 µM,0.73
same,relative viability,[4]; first compound 0.6325 µM,0.646
same,relative viability,[4]; first compound 2 µM,0.435
same,relative viability,[5]; first compound 0.02 µM,1.14
same,relative viability,[5]; first compound 0.2 µM,0.975
same,relative viability,[5]; first compound 0.6325 µM,1.12
same,relative viability,[5]; first compound 2 µM,1.05
same,relative viability,[6]; first compound 0.02 µM,0.85
same,relative viability,[6]; first compound 0.2 µM,0.812
same,relative viability,[6]; first compound 0.6325 µM,0.934
same,relative viability,[6]; first compound 2 µM,0.658
same,relative viability,[7]; first compound 0.02 µM,1.06
same,relative viability,[7]; first compound 0.2 µM,0.763
same,relative viability,[7]; first compound 0.6325 µM,0.96
same,relative viability,[7]; first compound 2 µM,0.825
same,relative viability,[8]; first compound 0.02 µM,1.08
same,relative viability,[8]; first compound 0.2 µM,0.908
same,relative viability,[8]; first compound 0.6325 µM,1.03
same,relative viability,[8]; first compound 2 µM,0.856
same,relative viability,[9]; first compound 0.02 µM,0.924
same,relative viability,[9]; first compound 0.2 µM,0.782
same,relative viability,[9]; first compound 0.6325 µM,0.76
same,relative viability,[9]; first compound 2 µM,0.649
same,relative viability,[10]; first compound 0.02 µM,0.852
same,relative viability,[10]; first compound 0.6325 µM,0.805
same,relative viability,[10]; first compound 2 µM,0.605
same,relative viability,[11]; first compound 0.02 µM,1.05
same,relative viability,[11]; first compound 0.2 µM,1.05
same,relative viability,[11]; first compound 0.6325 µM,1.12
same,relative viability,[11]; first compound 2 µM,0.96
same,relative viability,[12]; first compound 0.02 µM,0.956
same,relative viability,[12]; first compound 0.2 µM,0.85
same,relative viability,[12]; first compound 0.6325 µM,0.96
same,relative viability,[12]; first compound 2 µM,0.631
same,relative viability,[13]; first compound 0.02 µM,0.953
same,relative viability,[13]; first compound 0.2 µM,0.873
same,relative viability,[13]; first compound 0.6325 µM,0.656
same,relative viability,[13]; first compound 2 µM,0.531
same,relative viability,[14]; first compound 0.02 µM,0.84
same,relative viability,[14]; first compound 0.2 µM,0.856
same,relative viability,[14]; first compound 0.6325 µM,1.11
same,relative viability,[14]; first compound 2 µM,0.925
same,relative viability,[15]; first compound 0.02 µM,1.32
same,relative viability,[15]; first compound 0.2 µM,0.852
same,relative viability,[15]; first compound 0.6325 µM,0.469
same,relative viability,[15]; first compound 2 µM,0.712
same,relative viability,[16]; first compound 0.02 µM,1.03
same,relative viability,[16]; first compound 0.2 µM,0.94
same,relative viability,[16]; first compound 0.6325 µM,0.98
same,relative viability,[16]; first compound 2 µM,0.658
same,relative viability,[17]; first compound 0.02 µM,0.761
same,relative viability,[17]; first compound 0.6325 µM,0.611
same,relative viability,[17]; first compound 2 µM,0.523
same,relative viability,[18]; first compound 0.02 µM,1.05
same,relative viability,[18]; first compound 0.2 µM,0.908
same,relative viability,[18]; first compound 0.6325 µM,0.938
same,relative viability,[18]; first compound 2 µM,0.916
same,relative viability,[19]; first compound 0.02 µM,0.895
same,relative viability,[19]; first compound 0.2 µM,0.711
same,relative viability,[19]; first compound 0.6325 µM,1.14
same,relative viability,[19]; first compound 2 µM,0.792
same,relative viability,[20]; first compound 0.02 µM,0.78
same,relative viability,[20]; first compound 0.2 µM,0.737
same,relative viability,[20]; first compound 0.6325 µM,0.919
same,relative viability,[20]; first compound 2 µM,0.776
same,relative viability,[21]; first compound 0.02 µM,0.977
same,relative viability,[21]; first compound 0.6325 µM,0.982
same,relative viability,[21]; first compound 2 µM,0.734
